Data published in ChEMBL document CHEMBL4020732, “Synthesis, structural characterization and biological activity of novel Knoevenagel condensates on DLD-1 human colon carcinoma” (Bioorg Med Chem Lett, 2017).
Active and inactive are the calls of the source. The calls are words filed in the database; no cut-off is given here.

Experiments:
[1] = target: Superoxide dismutase 1/2 (Homo sapiens) (UniProt P00441+P04179); test: Inhibition of SOD1/SOD2 in human DLD1 cells at 100 uM using xanthine as substrate pretreated for 24 hrs followed by substrate addition measured after 5 mins by NBT dye based spectrophotometric method; assay type: cell-based
[2] = Antioxidant activity assessed as ABTS radical scavenging activity after 5 mins by spectrophotometric method; assay type: functional; parameters: unit not given here
[3] = system: DLD-1; test: Antioxidant activity in human DLD1 cells assessed as glutathione reactivity by measuring GSSG level per mg protein by ortho-phthalaldehyde probe based fluorescence spectrometric method (reference value: 0.69 nmol); assay type: functional
[4] = Antioxidant activity assessed as ABTS radical scavenging activity at 100 uM after 5 mins by spectrophotometric method; assay type: functional
[5] = Glutathione reactivity assessed as rate constant for total GSH loss by UV-vis spectrophotometric method
[6] = system: DLD-1; test: Antioxidant activity in human DLD1 cells assessed as ratio of reduced glutathione to oxidized glutathione by ortho-phthalaldehyde probe based fluorescence spectrometric method (reference value: 3.19 +/- 0.2); assay type: functional
[7] = target: T1, Extracellular superoxide dismutase [Cu-Zn] (Homo sapiens) (UniProt P08294); test: Inhibition of SOD3 in human DLD1 cells at 100 uM using xanthine as substrate pretreated for 24 hrs followed by substrate addition after 5 mins by NBT dye based spectrophotometric method; assay type: cell-based
T1 sequence (whole entry): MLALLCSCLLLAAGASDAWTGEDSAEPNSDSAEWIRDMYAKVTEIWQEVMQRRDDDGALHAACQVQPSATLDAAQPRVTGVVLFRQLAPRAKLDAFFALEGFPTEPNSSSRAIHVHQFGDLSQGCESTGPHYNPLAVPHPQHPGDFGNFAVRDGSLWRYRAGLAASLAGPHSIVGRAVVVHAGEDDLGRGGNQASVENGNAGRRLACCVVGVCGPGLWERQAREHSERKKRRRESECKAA

[8] = system: DLD-1; test: Antiproliferative activity against human DLD1 cells at 100 uM after 4 to 48 hrs by Alamar blue assay; assay type: functional, cell-based
[9] = system: DLD-1; test: Cytotoxicity against human DLD1 cells by MTT assay; assay type: functional, cell-based
[10] = system: DLD-1; test: Antioxidant activity in human DLD1 cells assessed as glutathione reactivity by measuring GSH level per mg protein by ortho-phthalaldehyde probe based fluorescence spectrometric method (reference value: 2.19 +/- 0.18 nmol); assay type: functional
[11] = system: DLD-1; test: Down regulation of MRP1 expression in human DLD1 cells at 100 uM after 24 hrs by fluorescence assay; assay type: functional, cell-based
[12] = Antioxidant activity of the compound assessed as DPPH radical scavenging activity after 5 mins by spectrophotometric method; assay type: functional; parameters: unit not given here
[13] = Antioxidant activity of the compound assessed as DPPH radical scavenging activity at 1 mM after 5 mins by spectrophotometric method; assay type: functional
[14] = target: T2, Superoxide dismutase [Mn], mitochondrial (Homo sapiens) (UniProt P04179); test: Inhibition of mitochondrial SOD2 in human DLD1 cells at 100 uM using xanthine as substrate pretreated for 24 hrs followed by substrate addition after 5 mins by NBT dye based spectrophotometric method; assay type: cell-based
T2 sequence (whole entry): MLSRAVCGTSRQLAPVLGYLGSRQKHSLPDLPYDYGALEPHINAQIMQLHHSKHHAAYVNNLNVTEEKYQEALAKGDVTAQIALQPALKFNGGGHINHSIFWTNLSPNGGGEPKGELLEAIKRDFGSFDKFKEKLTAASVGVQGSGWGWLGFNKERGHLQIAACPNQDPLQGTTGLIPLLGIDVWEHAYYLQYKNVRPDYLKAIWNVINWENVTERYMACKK

Sequence of Superoxide dismutase 1/2 (Homo sapiens) (P00441 whole entry, looked up, one chain of several): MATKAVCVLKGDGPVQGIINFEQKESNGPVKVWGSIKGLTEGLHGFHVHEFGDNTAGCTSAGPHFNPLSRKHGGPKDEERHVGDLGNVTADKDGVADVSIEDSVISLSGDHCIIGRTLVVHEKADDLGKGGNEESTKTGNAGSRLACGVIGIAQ

Row | SMILES | inhibition [1] | 1/IC50 [2] | IC50 [2] [µM] | inhibition [7] | 1/IC50 [12] | IC50 [12] [µM] | inhibition [14] | Activity [3] [nmol] | inhibition [4] [%] | Activity [5] | Ratio [6] | Activity [8] | IC50 [9] [µM] | Activity [10] [nmol] | Activity [11] | inhibition [13] [%] | K [5] [M⁻¹ s⁻¹]
1 | COc1cc(/C=C/C(=O)C(=Cc2ccccc2)C(=O)/C=C/c2ccc(O)c(OC)c2)ccc1O | inactive | 0.116 | 8.58 | inactive | 0.012 | 84.4 | – | 1.4 | 75.1 | Active | 3.19 | Active | 5.45 | 4.47 | Active | 58.6 | –
2 | COc1cc(/C=C/C(=O)CC(=O)/C=C/c2ccc(O)c(OC)c2)ccc1O [CURCUMIN] | – | 0.177 | 5.66 | – | 0.038 | 26.5 | – | – | 95 | – | – | – | – | – | – | 91.7 | –
3 | COc1cc(/C=C/C(=O)C(=Cc2ccc(OC)c(OC)c2)C(=O)/C=C/c2ccc(O)c(OC)c2)ccc1O | Active | 0.148 | 6.76 | inactive | 0.014 | 71 | Active | 4.21 | 83.6 | Active | 0.93 | Active | 3.07 | 3.93 | Active | 64.8 | –
4 | C=CC(=O)OCCCC | – | – | – | – | – | – | – | – | – | – | – | – | – | – | – | – | 0.142
5 | CCOc1cc(/C=C/C(=O)CC(=O)/C=C/c2ccc(O)c(OCC)c2)ccc1O [ETHYL CURCUMIN] | – | 0.156 | 6.4 | – | 0.041 | 24.5 | – | – | 96.1 | – | – | – | – | – | – | 93.4 | –
6 | C/C=C(/C)C(C)=O | – | – | – | – | – | – | – | – | – | – | – | – | – | – | – | – | 0.013
7 | C#CC(=O)OCC | – | – | – | – | – | – | – | – | – | – | – | – | – | – | – | – | 1.75
8 | CCOc1cc(/C=C/C(=O)C(=Cc2ccc(OCC)c(OCC)c2)C(=O)/C=C/c2ccc(O)c(OCC)c2)ccc1O | inactive | 0.049 | 20.2 | inactive | 0.016 | 61.6 | – | 3.24 | 71.4 | Active | 0.65 | Active | 3.45 | 2.12 | – | 69 | –
9 | CCOc1ccc(C=C(C(=O)/C=C/c2ccc(O)c(OC)c2)C(=O)/C=C/c2ccc(O)c(OC)c2)cc1OCC | inactive | 0.1 | 10 | inactive | 0.014 | 73 | Active | 1.88 | 74.9 | Active | 2.28 | Active | 4.12 | 4.27 | Active | 61.9 | –
10 | COc1cc(/C=C/C(=O)C(=Cc2ccc(O)cc2)C(=O)/C=C/c2ccc(O)c(OC)c2)ccc1O | Active | 0.158 | 6.32 | – | 0.021 | 48.7 | – | 1.2 | 89.2 | Active | 3.99 | Active | 4.08 | 4.8 | Active | 73.8 | –
11 | COc1cc(C=C(C(=O)/C=C/c2ccc(O)c(OC)c2)C(=O)/C=C/c2ccc(O)c(OC)c2)ccc1O | Active | 0.305 | 3.28 | – | 0.014 | 72.4 | Active | 2.8 | 97.9 | Active | 1.63 | Active | 5.06 | 4.56 | Active | 59.1 | –

More lines, main results first:

Row | inhibition [1] | 1/IC50 [2] | IC50 [2] [µM] | inhibition [7] | 1/IC50 [12] | IC50 [12] [µM] | inhibition [14] | SMILES | Activity [3] [nmol] | inhibition [4] [%] | Activity [5] | Ratio [6] | Activity [8] | IC50 [9] [µM] | Activity [10] [nmol] | Activity [11] | inhibition [13] [%] | K [5] [M⁻¹ s⁻¹]
12 | Active | 0.455 | 2.2 | – | 0.097 | 10.3 | – | COc1cc(/C=C/C(=O)C(=Cc2ccc(O)c(O)c2)C(=O)/C=C/c2ccc(O)c(OC)c2)ccc1O | 0.5 | 98.2 | inactive | 5.17 | Active | 17.6 | 2.6 | – | 92.5 | –
13 | Active | 0.275 | 3.63 | Active | 0.04 | 25.2 | – | CCOc1cc(/C=C/C(=O)C(=Cc2ccc(O)c(O)c2)C(=O)/C=C/c2ccc(O)c(OCC)c2)ccc1O | 1.16 | 98.1 | Active | 3.78 | Active | 5.1 | 4.41 | – | 81.2 | –
14 | Active | 0.049 | 20.4 | – | 0.011 | 91.4 | Active | CCOc1cc(/C=C/C(=O)C(=Cc2ccccc2)C(=O)/C=C/c2ccc(O)c(OCC)c2)ccc1O | 0.48 | 60.5 | Active | 6.89 | Active | 5.06 | 3.27 | Active | 54.7 | –
15 | inactive | 0.068 | 14.8 | inactive | 0.021 | 48 | inactive | CCOc1cc(/C=C/C(=O)C(=Cc2ccc(O)cc2)C(=O)/C=C/c2ccc(O)c(OCC)c2)ccc1O | 3.13 | 87.7 | Active | 1.15 | Active | 20.3 | 3.59 | Active | 74.4 | –
16 | Active | 0.251 | 3.98 | inactive | 0.01 | 123 | – | CCOc1cc(C=C(C(=O)/C=C/c2ccc(O)c(OC)c2)C(=O)/C=C/c2ccc(O)c(OC)c2)ccc1O | 1.02 | 94.3 | Active | 5 | Active | 4.26 | 5.12 | Active | 42.3 | –
17 | – | 0.187 | 5.36 | inactive | 0.017 | 60.5 | – | CCOc1cc(/C=C/C(=O)C(=Cc2ccc(O)c(OC)c2)C(=O)/C=C/c2ccc(O)c(OCC)c2)ccc1O | 4.3 | 96.6 | Active | 2.27 | Active | 9.63 | 9.75 | Active | 63 | –
18 | inactive | 0.195 | 5.14 | inactive | 0.01 | 96.7 | – | CCOc1cc(C=C(C(=O)/C=C/c2ccc(O)c(OCC)c2)C(=O)/C=C/c2ccc(O)c(OCC)c2)ccc1O | 0.84 | 88.5 | Active | 3.8 | Active | 1.36 | 3.2 | – | 50.6 | –
19 | Active | 0.088 | 11.3 | inactive | 0.019 | 53.2 | Active | CCOc1cc(/C=C/C(=O)C(=Cc2ccc(OC)c(OC)c2)C(=O)/C=C/c2ccc(O)c(OCC)c2)ccc1O | 0.49 | 80.6 | Active | 6.59 | Active | 42 | 3.24 | – | 73.5 | –
